Laboratory results taken from PMC6934184, “Selective DNA-PKcs inhibition extends the therapeutic index of localized radiotherapy and chemotherapy” (The Journal of Clinical Investigation, 2019).

Target: T1, JAK1 (Homo sapiens, UniProt P23458)
T1 construct: purchased Thermo Fisher Scientific (Life Technologies) SelectScreen
Experiment: SelectScreen Z'LYTE
Assay type: biochemical
How it was run: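 SelectScreen broad panel; activity (Z'LYTE, Adapta) plus binding formats. ATP: Km app for CSF1R Z'LYTE; 10 for CAMK1 Adapta. Readout = % per kinase.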

T1 sequence (P23458 whole entry): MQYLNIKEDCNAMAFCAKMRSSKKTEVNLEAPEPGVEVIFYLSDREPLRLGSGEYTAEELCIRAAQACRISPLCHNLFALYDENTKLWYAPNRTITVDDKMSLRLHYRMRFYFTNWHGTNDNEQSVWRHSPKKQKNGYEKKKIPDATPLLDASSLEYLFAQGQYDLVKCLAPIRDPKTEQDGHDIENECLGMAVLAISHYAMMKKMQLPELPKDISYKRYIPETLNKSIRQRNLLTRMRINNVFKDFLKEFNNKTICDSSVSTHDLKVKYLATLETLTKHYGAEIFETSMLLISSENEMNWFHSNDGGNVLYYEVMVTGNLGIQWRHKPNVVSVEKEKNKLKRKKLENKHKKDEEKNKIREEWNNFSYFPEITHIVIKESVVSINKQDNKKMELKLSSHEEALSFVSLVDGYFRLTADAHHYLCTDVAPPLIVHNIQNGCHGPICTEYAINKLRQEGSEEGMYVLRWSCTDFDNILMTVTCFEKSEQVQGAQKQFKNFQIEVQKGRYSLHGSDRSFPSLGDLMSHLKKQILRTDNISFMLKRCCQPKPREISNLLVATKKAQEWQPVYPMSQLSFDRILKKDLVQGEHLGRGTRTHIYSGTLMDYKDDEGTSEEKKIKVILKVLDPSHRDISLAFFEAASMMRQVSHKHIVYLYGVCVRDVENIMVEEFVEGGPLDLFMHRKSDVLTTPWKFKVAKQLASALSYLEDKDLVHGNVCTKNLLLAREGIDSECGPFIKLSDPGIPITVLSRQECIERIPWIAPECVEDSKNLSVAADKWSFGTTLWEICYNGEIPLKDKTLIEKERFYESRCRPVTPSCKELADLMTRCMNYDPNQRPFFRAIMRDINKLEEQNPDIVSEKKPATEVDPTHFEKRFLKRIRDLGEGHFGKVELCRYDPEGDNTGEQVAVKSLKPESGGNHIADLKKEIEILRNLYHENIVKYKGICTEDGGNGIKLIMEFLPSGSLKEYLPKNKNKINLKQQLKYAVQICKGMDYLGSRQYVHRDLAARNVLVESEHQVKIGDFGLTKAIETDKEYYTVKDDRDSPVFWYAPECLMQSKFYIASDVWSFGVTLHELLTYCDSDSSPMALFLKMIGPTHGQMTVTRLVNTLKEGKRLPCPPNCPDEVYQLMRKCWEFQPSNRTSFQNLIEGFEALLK

## CN(C(=O)CN1CCOCC1)c1ccc2sc3c(-c4cccc5c(=O)cc(N6CC7CCC(C6)O7)oc45)cccc3c2c1 [NU5455]
  inhibition at 1 µM: -5.7%
